pKd: −log10 of the molar value.
Experiments:
[1] = target: T1, ERG-ETS domain (Homo sapiens, UniProt P11308); assay: NMR-monitored titration (15N-HSQC) with ERG-ETS domain; conditions: 15N-HSQC titration, 1:1 binding isotherm; pH 6.5; read-out: KD for interaction with recombinant ERG-ETS domain
T1 construct: A pET28a plasmid encoding residues 307–400 of the ERG-ETS domain; His6 (cleaved yes); made in house; host or cells: E. coli BL21 (λDE3)
T1 sequence (P11308 307-400): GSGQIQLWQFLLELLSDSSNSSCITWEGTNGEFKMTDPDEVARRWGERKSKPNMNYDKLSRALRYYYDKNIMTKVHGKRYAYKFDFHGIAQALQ
Procedure: ERG-ETS domain expression and purification. A pET28a plasmid encoding residues 307–400 of the ERG-ETS domain was expressed in E. coli BL21 (λDE3). Cultures of 1 L were grown at 37°C in M9 media supplied with 3 gm/L ^13C6-glucose and/or 1 gm/L ^15NH4Cl. Cells were allowed to grow to O.D.600 = 0.6 and protein expression was induced by adding 1 mM IPTG. After an induction time of 4 h, cells were harvested by centrifugation and stored at −80 °C for at least 1 round of freeze/thaw. Cells were resuspended in 40 mL of lysis buffer for every 1 L of culture. Cells were lysed by passing through 5 rounds of homogenization and 10 mins of sonication. The cell lysate centrifuged at 15k rpm for 1 hr, and the supernatant subjected to nickel column purification. The column was washed using 25 mM imidazole (50 mM phosphate, 1 M NaCl, pH 7.4) and proteins were eluted with 1 M imidazole. Fractions containing the ETS domain were confirmed by SDS-PAGE and pooled. […] NMR data were recorded at 25 or 28°C on cryoprobe-equipped 850 MHz Bruker Avance III spectrometer. Data were processed and analyzed using NMRpipe and Sparky. […] NMR-monitored titrations. Interactions of compounds with the ERG-ETS domain were monitored via sensitivity-enhanced ^15N-HSQC spectra. […] Chemical shift perturbations were calculated from the combined amide ^1H^N and ^15N shift changes as Δδ = [(0.2 × ΔδN)^2 + (ΔδH)^2]^1/2. […]

[2] = target: T2, ERG-DNA complex (Homo sapiens, UniProt P11308); assay: EMSA with VCaP nuclear lysate; assay type: binding; conditions: 55 ng/μl nuclear extract, 4 μM to 8 mM
T2 construct: VCaP (endogenous overexpression); endogenous in cells; host or cells: VCaP (whole cells for A2 and A17; nuclear extract for A16)
T2 sequence (P11308 33-479 limits assumed): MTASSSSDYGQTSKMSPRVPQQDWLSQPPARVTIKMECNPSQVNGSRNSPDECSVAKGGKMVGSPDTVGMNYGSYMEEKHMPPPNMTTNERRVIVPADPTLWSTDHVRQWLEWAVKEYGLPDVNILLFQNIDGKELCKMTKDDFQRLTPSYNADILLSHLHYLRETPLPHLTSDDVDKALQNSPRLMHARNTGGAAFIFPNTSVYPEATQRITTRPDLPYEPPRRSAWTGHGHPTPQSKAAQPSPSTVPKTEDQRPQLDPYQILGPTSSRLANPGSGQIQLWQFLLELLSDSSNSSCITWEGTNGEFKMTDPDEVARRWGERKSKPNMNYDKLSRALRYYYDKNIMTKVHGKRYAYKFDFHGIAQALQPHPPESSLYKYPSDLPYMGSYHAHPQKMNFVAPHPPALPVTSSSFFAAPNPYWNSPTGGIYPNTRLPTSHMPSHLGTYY
Procedure: For experiments involving ERG from VCaP cells, VCaP nuclear protein was extracted using CelLytic NuCLEAR Extraction Kit (Sigma). […] For subsequent assays, 55 ng/μl of the nuclear extract was mixed with 1 nM of fluorophore-labeled dsDNA, titrated with VPC-18005 (diluted from a DMSO stock) and analyzed by the same EMSA protocol.

SMILES: CC(C)c1ccc(C=N/N=C2\NC(=O)[C@@H](CC(=O)O)S2)cc1 (stereo in doubt) [VPC-18005, 2-((Z)-2-(((Z)-4-isopropylbenzylidene)hydrazono)-4-oxothiazolidin-5-yl)acetic acid]
- pKd [1]: ~2.52
- Disruption of ERG-DNA complex formation, VCaP nuclear lysate [2]: disrupted ERG-DNA complex formation
